According to patent US20260272923A1, “NONSENSE MEDIATED DECAY INHIBITOR COMPOUNDS” (The Johns Hopkins University, priority 2023, published 2026):

Legend:
[1] = test system: mutant protein (TP53); assay: TP53 western blot in H358, LS180 and RPE TP53 KO clone 224; assay type: cell-based; details: 5 uM, 16 hours
Method: H358 (negative control), LSl80, and RPE TP53 KO line clone 224 were plated (at 1e5 cells per well) into 6 well plates. Wells were treated with 5 uM of the compound of Formula III for 16 hours. Cells were harvested, pelleted and washed with PBS. Cells were lysed using RIPA buffer (Thermo Scientific) and then run through a Qiashredder column (Qiagen) following manufacturer's instructions. Protein was quantified using a BCA Kit (Pierce). 50 ug of protein was loaded into 5-15% polyacrylamide gels (Biorad) and run for 30 min at 200V. Protein was transferred to a nitrocellulose membrane following manufacturer's recommendations and stained with a TP53 protein (clone DO-1 from Cell Signaling) overnight in 3% milk with TBS-T. HRP conjugated secondary antibody was used for detection and imaged on a gel imager (Bio Rad) (FIG. 8B).

[2] = test system: nonsense mediated decay (NMD); assay: Targeted RNA-sequencing of subcutaneous H358 and LS180 tumors in nude mice; assay type: in vivo; details: IP dose at 30 mg/kg, H358 or LS180 tumors, 16 hours after treatment
Method: All animal work was done under the supervision and guidance of Johns Hopkins Animal Care and Use committee with appropriate protocols and humane standards of care. LS180 and H358 cell lines (ATCC) were placed subcutaneously in the back of nude mice (Jackson Laboratories). The compound of Formula III was solubilized in 10% cremaphor (Sigma Aldrich) with 2% glycerol (Sigma Aldrich) and sterilized by 0.22 uM filter (Thermo Scientific). After tumors reached palpable size, about 7 days, mice were treated with […] of the compound of Formula III by IP injection. 16 hours after treatment, mice were sacked, and tumors were harvested and stored in RNA Later (Thermo Scientific). RNA was harvested using an RNeasy kit (Qiagen) and Qiashredder (Qiagen). Reverse transcription was performed per manufacturer's instructions (High Capacity cDNA kit from Applied Biosciences). Primers specific for the indel mutation site for 3 genes were used, and at least one primer from each set overlapped an exon-exon boundary. […] After PCR amplification, products were barcoded with an 8 bp sequence so the well it originated in could be determined, and sequenced on a Miseq (Illumina). Transcripts from the wild type and mutant allele were counted to determine abundance of each with treatment or without (FIGS. 9A-9B).

[3] = test system: nonsense mediated decay (NMD); assay: Targeted RNA-sequencing of indel genes in LS180 cells; assay type: cell-based; details: serial dilution starting at 5 uM, 16 hrs
Method: LS180 Cells were plated into 96 well plates at 1e4 cells/well. The compound of Formula III was solubilized in DMSO and added in a serial dilution starting at 5 uM and diluting 1:2. Cells were incubated for 16 hrs at 37 C and 5% CO2. RNA was harvested using an RNeasy kit (Qiagen). Reverse transcription was performed per manufacturer's instructions (High Capacity cDNA kit from Applied Biosciences). Primers specific for the indel mutation site for 3 genes were used, and at least one primer from each set overlapped an exon-exon boundary. RNF43 is a common SNP that is heterozygous in LS180 and was used as a negative control. After PCR amplification, products were barcoded with an 8 bp sequence so the well it originated in could be determined, and sequenced on a Miseq (Illumina). Transcripts from the wild type and mutant allele were counted to determine abundance of each with treatment or without (FIG. 8A).

[4] = test system: truncated mutant TP53 protein; assay: TP53 western blot in TP53 knockout clones; assay type: cell-based; details: for expression of truncated mutant TP53 protein: TP53 knockout cell line with homozygous mutation, DO-1 antibody
Method: (§1) To confirm generality of the NMD HTS hits, validations were performed on isogenic STAG2 and TP53 knockouts in a second cell line background, RPtec (renal) cells. Transcript recovery was first evaluated in STAG2 and TP53 isogenic knockout clones from this second background. […] A TP53 knockout cell line was then selected with a homozygous mutation predicted to generate a truncated TP53 protein readily identifiable by established TP53 antibodies (DO-1). […] Using cell lines where the TP530 isoform transcripts are expected to be intact, an increase in the TP53$ isoform was also observed in cell lines treated with the NMD inhibitors (FIG. 1E middle and left column). […] Based on strong induction of predicted mutant truncated protein across multiple isogenic cell lines LY3023414 was selected as the NMD inhibiting compound of interest. LY3023414 was created as a phosphatidylinositol 3-kinase (PI3K) inhibitor with activity against AKT Serine/Threonine Kinase 1 (AKT1) and Target of Rapamycin (mTOR).

[5] = test system: nonsense mediated decay (NMD); assay: Ratiometric mutant/wild type transcript sequencing assay (HTS) in RPE1 STAG2 and TP53 isogenic knockout cell lines; assay type: cell-based
Excerpt: An experimental system was generated to identify and evaluate NMD inhibitors based on a panel of isogenic cell lines developed to assess tumor suppressor gene function and synthetic lethality. Briefly, common tumor suppressor genes were individually knocked out in multiple non-cancerous cell lines using the Clustered Regularly Interspaced Short Palindromic Repeats (CRISPR)-Cas9 system. As part of this effort, two genes displaying strong activation of NMD in response to indel creation were identified, Stromal Antigen 2 (STAG2) and Tumor Protein p53 (TP53). The absence of detectable protein in these knock out cell lines was verified via western blots against STAG2 and immunohistochemistry for TP53. Further, active RNA decay of the mutant transcripts was identified through whole transcriptome RNA-sequencing. […]
A high throughput screen (HTS) was then performed by treating the isogenic cell line mixture with the SelleckChem Bioactive library, consisting of 2,658 small molecules and natural products (FIG. 1A). Total RNA was harvested from cells 16 hours post treatment and the gRNA target regions were amplified using a panel of primers (one for TP53 and one for STAG2) and mutant and wild type transcript abundance was quantified using next generation sequencing. […]

[6] = test system: mutant protein (TP53); assay: TP53 western blot in TP53 KO lines; assay type: cell-based; details: 5 uM, 16 hours
Method: TP53 KO lines were created and plated (at 1e5 cells per well) into 6 well plates. Wells were treated with 5 uM of the compound of Formula II for 16 hours. Cells were harvested, pelleted and washed with PBS. Cells were lysed using RIPA buffer (Thermo Scientific) and then run through a Qiashredder column (Qiagen) following manufacturer's instructions. Protein was quantified using a BCA Kit (Pierce). 50 ug of protein was loaded into 5-15% polyacrylamide gels (Biorad) and run for 30 min at 200V. Protein was transferred to a nitrocellulose membrane following manufacturer's recommendations and stained with a TP53 protein (clone DO-1 from Cell Signaling) overnight in 3% milk with TBS-T. HRP conjugated secondary antibody was used for detection and imaged on a gel imager (Bio Rad) (FIG. 7B).

[7] = test system: nonsense mediated decay (NMD); assay: Real time PCR of STAG2 transcripts in RPE STAG2 knockout cells; assay type: cell-based; details: serial dilution starting at 10 uM, 16 hrs
Method: RPE STAG2 knockout cells were created and plated into 96 well plates at 1e4 cells/well. The compound of Formula II was solubilized in DMSO and added in a serial dilution starting at 10 uM and diluting 1:2. Cells were incubated for 16 hrs at 37 C and 5% CO2. RNA was harvested using an RNeasy kit (Qiagen). Real time PCR was performed using primers specific for STAG2 transcripts and at least one primer overlapped an exon-exon boundary (FIG. 7A).

[8] = test system: NMD sensitive transcripts (TP53β); assay: Quantitative real time PCR of TP53α and TP53β transcripts in parental RPE1 and RPTec cells; assay type: cell-based
Method: as §1

[9] = test system: nonsense mediated decay (NMD); assay: NCI-H358 and LS180 xenograft tumors in NOD-SCID mice, mutant RNA transcripts and tolerability; assay type: in vivo
[10] = test system: NMD targeted mutant protein (EXOC1, SPTAN1); assay: Western blot of mutant proteins in NCI-H358 and LS180 cells; assay type: cell-based; details: NCI-H358 cells, 24 hours
Excerpt: (§2) It was next sought to evaluate whether LY3023414 could relieve repression of indel containing transcripts in cancer cells. The microsatellite stable NCI-H358 and microsatellite instable LS180 lung and colorectal cancer cell lines were chosen respectively. Nearly 40% of heterozygous indel and 25% of nonsense single base-pair mutation containing genes show increased expression of their mutant allele when treated with LY3023414 when evaluated by RNA sequencing (FIG. 2A). […] Heterozygous single nucleotide polymorphism (SNP) Ring Finger Protein 43 (RNF43) and drosha ribonuclease […] (DROSHA) served as controls, and allele ratios remain unchanged with treatment (FIG. 2B). To investigate for changes at the protein level, NCI-H358 cells were treated for 24 hours with either LY3023414 or DMSO.
(§3) Analyzing a wider set of 21 NMD sensitive genes from the RNA-Seq analysis in LS180 confirmed that LY3023414 and SMG1 specific inhibitor increase the same 18 genes with a greater than 80% re-expression rate, in both cell lines. […] As SMG1 inhibition is an off target effect for LY3023414, the concentrations used in this study may result in inhibition of a number of different kinases.
(§4) To confirm disruption of downstream signaling of SMG1, a western blot was performed with phosphorylation specific antibodies for UPF1.

[11] = test system: nonsense mediated decay (NMD); assay: RNA sequencing of NCI-H358 and LS180 cancer cell lines; assay type: cell-based
Excerpt: as §2, §3

[12] = test system: phosphorylated UPF1; assay: Phospho-UPF1 specific western blot; assay type: cell-based; details: FIG. 3D
Method: as §3, §4

[13] = test system: nonsense mediated decay (NMD); assay: Targeted RNA sequencing of heterozygous indel mutations in NCI-H358 and LS180 cells; assay type: cell-based; details: NCI-H358 and LS180, in vitro
Excerpt: as §2, §3, §4

[14] = test system: mutant form of TP53 protein; assay: Western blot against TP53 in NCI-H716 and NCI-H2228 cell lines

Structure (SMILES): CNC(=O)Nc1ccc(-c2cc(-c3ccnc(Nc4ccc(Cl)c(S(=O)(=O)N5CCN(C)CC5)c4)n3)ccn2)cc1 [compound of Formula III]
- mutant protein re-expression [1]: re-expresses mutant protein in vitro
- in vivo NMD inhibition (re-expression of NMD downregulated genes) [2]: in vivo NMD inhibition activity
- mutant RNA re-expression [3]: re-expresses mutant RNA in vitro

Structure (SMILES): O=C(CC1NCCCC1O)Cn1cnc2cc(Br)c(Cl)cc2c1=O (centres unmarked) [halofuginone]
- expression of truncated mutant TP53 protein [4]: robustly induced expression of the truncated mutant TP53 protein

Structure (SMILES): COc1ccc(C[C@H]2NC[C@H](O)[C@H]2OC(C)=O)cc1 [Anisomycin]
- mutant transcript fraction ([5]; 16 hours post treatment, in all three cell lines, 0.5 = 4 standard deviations above DMSO controls): above 0.5

Structure (SMILES): CNC(=O)Nc1ccc(-c2cc(-c3ccnc(Nc4ccc(Cl)c(S(=O)(=O)N(CCO)CCO)c4)n3)ccn2)cc1 [compound of Formula II]
- mutant protein re-expression [6]: re-expresses mutant protein
- mutant RNA re-expression [7]: re-expresses mutant RNA

Structure (SMILES): CC[C@H]1CN2CCc3cc(OC)c(OC)cc3[C@@H]2C[C@@H]1C[C@H]1NCCc2cc(OC)c(OC)cc21 [emetine]
- recovery of mutant RNA transcript expression ([5]; RPE1 STAG2/TP53 knockout cell line mixture): 6 fold

Structure (SMILES): CO[C@@H](C)Cn1c(=O)n(C)c2cnc3ccc(-c4cncc(C(C)(C)O)c4)cc3c21 [LY3023414]
- TP53α and TP53β transcript levels [8]: only the NMD regulated (TP53β) transcript levels increased with treatment
- autopsies of treated animals ([9]; mice treated with LY3023414): no abnormalities
- weight loss ([9]; mice treated with LY3023414): severe weight loss
- expression of mutant RNA transcripts in tumors ([9]; single dose by oral gavage, tumors harvested over 24 hours): increase in the expression of mutant RNA transcripts
- induction of TP53β and mutant TP53 (western blot) ([4]; RPE TP53 clone 223, RPTec TP53 KO 588, full-length not induced): prominently induced
- expression of truncated mutant TP53 protein [4]: robustly induced expression of the truncated mutant TP53 protein
- truncated mutant EXOC1 and SPTAN1 protein expression [10]: truncated mutant protein only expressed after treatment with LY3023414
- heterozygous indel containing genes with increased expression of mutant allele [11]: ~40%
- nonsense single base-pair mutation containing genes with increased expression of mutant allele [11]: 25%
- phospho-UPF1 levels [12]: increases the levels of phospho-UPF
- mutant allele RNA expression [13]: significant increased expression of the mutant allele

Structure (SMILES): O=c1[nH]cc(F)c(=O)[nH]1 [5-fluorouracil]
- TP53 protein levels [14]: no effect on TP53 levels
